This note sets out measurements from US20070275887A1, “Method of Inhibiting Secretase Activity” (priority 2003, published 2007).

In experiment [1] the test system is Embryonic fibroblasts (MEFs) from wild-type and synoviolin gene-deficient mice. The experiment is described as follows: Effect of a γ-secretase inhibitor on cell proliferation activity (Alamer Blue) in wild-type and synoviolin-deficient MEFs. The experiment is classed as cell-based, mouse. The settings on record: MEFs 1×10^3 cells/well, treated 24 hours, Alamer Blue absorbance after 2 hours; Syno −/− compared with Syno +/+ (FIG. 5). The method, then:
Since there are ethical objections to sensitivity measurement tests using the brains of Alzheimer's patients, another evaluation system needs to be used for evaluating the sensitivity of the secretase inhibitor. The inventors therefore used an evaluation system in which cells were treated with a secretase inhibitor and cell proliferation was used as the marker of secretase inhibition. There are no particular limits on the type of secretase here, and examples include β-secretase and γ-secretase. Consequently, the secretase inhibitor can be either a β-secretase inhibitor or a γ-secretase inhibitor. There are no particular limits on the secretase inhibitor, and examples include L-685,458 (Peptide Institute), (3,5-Difluorophenylacetyl)-Ala-Phg-OBu^t [DAPT] (Peptide Institute), Lys-Thr-Glu-Glu-Ile-Ser-Glu-Val-Asn-Sta-Val-Ala-Glu-Phe (Peptide Institute), Z-Leu-Leu-Nle-CHO (Wako) and the like.
Secretase activity is judged to have been inhibited when cell proliferation activity is suppressed. […]
Embryonic fibroblasts (MEFs) obtained from synoviolin gene-introduced mice (wild-type mice) and synoviolin gene-deficient mice were inoculated to 1×10^3 cells/well on 96-well plates, and cultured overnight. After culture the cells were treated with a γ-secretase inhibitor (Z-Leu-Leu-Nle-CHO, Wako) and cultured for 24 hours, after which Alamer Blue was added and absorbance was measured after 2 hours.

Another experiment has as its target T1, FLAG-tagged synoviolin (human, UniProt Q86TM6 1-617).
T1 construct: not shown: FLAG tag
The experiment can be described thus: co-immunoprecipitation (anti-HA or anti-FLAG) and Western blotting from HEK293T cells. Here is the method:
An HA tag was attached to the N-terminal of this gene, which was inserted into a pcDNA3 vector. Next, Ha-tagged Herp, Herp(-bind) and a blank vector were each strongly expressed together with FLAG-tagged synoviolin in HEK293T cells. After 24 hours whole cell extract (WCE) was extracted, expression of each protein was confirmed, and immunoprecipitation was performed with anti-HA antibodies or anti-FLAG antibodies.
(In general: In western blotting, separated proteins are transferred to a membrane and probed.)

Non-standard residues stand in square brackets, D forms with d. Residues, ends and D or L forms follow the SMILES beside them. *: point of attachment. Nle = CCCC[C@H](N)C(=O)O; Cbz = O=C(OCc1ccccc1)*

T1 sequence (Q86TM6 whole entry E545G): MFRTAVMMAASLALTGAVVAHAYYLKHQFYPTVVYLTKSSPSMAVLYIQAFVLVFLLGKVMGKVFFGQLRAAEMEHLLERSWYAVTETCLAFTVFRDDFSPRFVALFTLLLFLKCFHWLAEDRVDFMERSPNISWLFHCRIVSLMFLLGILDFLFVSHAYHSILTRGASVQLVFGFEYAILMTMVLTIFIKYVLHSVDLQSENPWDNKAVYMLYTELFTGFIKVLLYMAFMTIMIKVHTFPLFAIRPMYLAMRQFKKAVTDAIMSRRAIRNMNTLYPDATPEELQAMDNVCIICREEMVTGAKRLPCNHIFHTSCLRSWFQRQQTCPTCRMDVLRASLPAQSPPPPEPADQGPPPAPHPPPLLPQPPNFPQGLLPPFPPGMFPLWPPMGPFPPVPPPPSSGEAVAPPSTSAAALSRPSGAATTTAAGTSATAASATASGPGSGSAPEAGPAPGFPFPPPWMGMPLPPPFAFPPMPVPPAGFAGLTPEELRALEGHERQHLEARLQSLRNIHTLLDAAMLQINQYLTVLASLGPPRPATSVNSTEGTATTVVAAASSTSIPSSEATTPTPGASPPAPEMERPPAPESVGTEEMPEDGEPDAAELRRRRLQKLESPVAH

As for `CCCC[C@@H](C=O)NC(=O)[C@H](CC(C)C)NC(=O)[C@H](CC(C)C)NC(=O)OCc1ccccc1` [Z-Leu-Leu-Nle-CHO] (Cbz-Leu-Leu-[Nle]-aldehyde), the “effect of the γ-secretase inhibitor on cell proliferation activity” value in experiment [1] is listed as “greater in the cells derived from synoviolin-deficient mice than in the cells derived from wild-type mice”.

B1: HA-tagged Herp(-bind) (other)
chain: MESETEPEPVTLLVKSPNQRHRDLELSGDRGWSVGHLKAHLSRVYPERPRPEDQRLIYSGKLLLDHQCLRDLLPKQEKRHVLHLVCNVKSPSKMPEINAKVAESTEEPAGSNRGQYPEDSSSDGLRQREVLRNLSSPGWENISRPEAAQQAFQGLGPGFSAQEIPVVSAPAPAPIHNQFPAENQPANQNAAPQVVVNPGANQNLRMNAQGGPIVEEDDEINRDWLDWTYSAATFSVFLSILYFYSSLSRFLMVMGATVVMYLHHVGWFPFRPRPVQNFPNDGPPPDVVNQDPNNNLQEGTDPETEDPNHLPPDRDVLDGEQTSPSFMSTAWLVFKTFFASLLPEGPPAIAN
notes: not shown: HA tag at the N-terminal
Turning to B1, the binding result with FLAG-tagged synoviolin is “no binding”.
